According to patent publication US7282507B2, “Indole derivatives as selective androgen receptor modulators (SARMS)” (Janssen Pharmaceutica N.V., priority 2004, dated 2007):
Where “and” joins values, the source holds several entries; their conditions need not be identical. Equal entries are not always repeated.

Columns and labels:
[1] = biological target: T1, androgen receptor (AdEasy+rAR, L929 cells) (Rattus norvegicus, UniProt P15207); assay: L929 Androgen Receptor Functional Assay, Adenovirus Transduction; type: cell-based; details: for inhibition at 3 µM: L929, antagonist testing with R1881, 3000 nM; for % Inhibition, L929 androgen receptor functional assay: antagonist testing with R1881, 3000 nM
T1 construct: expressed in transfected cells; host or cells: L929 cells transduced with adenovirus AdEasy+rAR
T1 sequence (P15207 1-902): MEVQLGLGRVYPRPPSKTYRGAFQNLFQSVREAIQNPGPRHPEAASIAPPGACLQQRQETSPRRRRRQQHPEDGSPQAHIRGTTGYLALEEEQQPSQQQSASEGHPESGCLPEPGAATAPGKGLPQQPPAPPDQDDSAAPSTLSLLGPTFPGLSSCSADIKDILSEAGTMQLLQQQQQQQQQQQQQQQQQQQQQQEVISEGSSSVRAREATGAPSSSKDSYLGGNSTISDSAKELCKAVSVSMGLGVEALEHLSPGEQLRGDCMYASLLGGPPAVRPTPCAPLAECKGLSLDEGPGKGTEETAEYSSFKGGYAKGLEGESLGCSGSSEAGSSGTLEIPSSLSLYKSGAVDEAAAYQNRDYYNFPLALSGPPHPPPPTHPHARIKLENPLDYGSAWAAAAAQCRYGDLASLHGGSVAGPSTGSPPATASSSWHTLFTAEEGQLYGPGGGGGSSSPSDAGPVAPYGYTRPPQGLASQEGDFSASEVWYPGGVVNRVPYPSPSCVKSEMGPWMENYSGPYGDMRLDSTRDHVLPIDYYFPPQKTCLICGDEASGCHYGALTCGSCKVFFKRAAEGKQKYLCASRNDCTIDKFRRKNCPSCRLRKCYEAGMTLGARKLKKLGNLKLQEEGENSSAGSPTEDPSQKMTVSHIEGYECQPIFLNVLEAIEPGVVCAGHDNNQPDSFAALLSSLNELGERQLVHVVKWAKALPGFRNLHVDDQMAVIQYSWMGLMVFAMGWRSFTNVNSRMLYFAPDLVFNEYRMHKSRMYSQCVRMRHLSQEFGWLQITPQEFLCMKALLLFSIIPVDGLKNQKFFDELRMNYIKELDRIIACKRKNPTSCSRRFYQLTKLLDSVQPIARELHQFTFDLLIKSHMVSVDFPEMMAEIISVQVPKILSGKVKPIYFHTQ
Procedure, shortened: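 L929 cells in phenol red-free, charcoal-stripped serum medium transduced with AdEasy+rAR (moi 1:500) and exposed 48 h at 37 °C to compound alone (agonist mode) or with R1881 (antagonist mode; 2.5 nM as the 2.5× dilution).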

[2] = test system: testosterone-enhanced ventral prostate and seminal vesicle weights; assay: Ventral Prostate and Seminal Vesicle Weight in vivo Assay; parameters: species or system rat; details: immature castrated male Sprague Dawley rats, once daily for five days, usually orally 40 mg/kg, with testosterone propionate 2 mg/kg s.c. Note: key: 'active' if the non weight adjusted prostate weight was ≦40 mg or the % Inhibition prostate weight, body weight adjusted was ≧40% @ 2 mg/day dosage; ID50's, if determined, of ≦15 mg/day also indicated an 'active' compound; listed herein as 'inactive' as they did not meet the specified criteria defined above.
Procedure, shortened: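 Immature castrated male Sprague Dawley rats (~50 g) were dosed once daily for five days with compound, usually orally at 40 mg/kg in cyclodextrin or methylcellulose vehicle. Testosterone propionate was co-dosed subcutaneously at 2 mg/kg. On day six, ventral prostate and seminal vesicle wet weights were measured; activity was judged on prostate weight or body-weight-adjusted % inhibition.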

Question: Which results are given for `CCS(=O)(=O)C[C@](C)(O)c1cc2cc([N+](=O)[O-])c(C(F)(F)F)cc2[nH]1` [Compound 156, 1-Ethanesulfonyl-2-(5-nitro-6-trifluoromethyl-1H-indol-2-yl)-propan-2-ol]?
Answer: inhibition at 3 µM [1]: 35%; % Activity, L929 androgen receptor functional assay ([1]; agonist testing, 3000 nM): 2%; % Inhibition, L929 androgen receptor functional assay ([1]; 3 µM): 23%; active / inactive: inhibition of testosterone-enhanced prostate weight [2]: inactive

Question: What does the source list for `CCSCC(C)(O)c1cc2cc([N+](=O)[O-])c(C(F)(F)F)cc2n1C` (racemic) [Compound 165]?
Answer: inhibition at 3 µM [1]: 100%; % Activity, L929 androgen receptor functional assay ([1]; agonist testing, 3000 nM): 1%; active / inactive: inhibition of testosterone-enhanced prostate weight [2]: active

Question: `CC[S+]([O-])C[C@](C)(O)c1cc2cc([N+](=O)[O-])c(C(F)(F)F)cc2[nH]1` (stereo in doubt) [Compound 155, 1-Ethanesulfinyl-2-(5-nitro-6-trifluoromethyl-1H-indol-2-yl)-propan-2-ol] was tested. Which inhibition at 3 µM [1] did it give?
Answer: Its inhibition at 3 µM is -2%.

Question: And the “% Activity, L929 androgen receptor functional assay” value (“% Activity” for short) ([1]; agonist testing, 3000 nM)?
Answer: The value was 2%.

Question: And the “active / inactive: inhibition of testosterone-enhanced prostate weight” value (shortened to “active / inactive: inhibition”) [2]?
Answer: The value was “inactive”.

Question: For `CC(O)(CSCC(F)(F)F)c1cc2cc([N+](=O)[O-])c(C(F)(F)F)cc2[nH]1` (stereo not shown) [Compound 171], which EC50 ([1]; agonist testing) is on record?
Answer: The EC50 was > 8000 nM.

Question: And the “% Activity” value ([1]; agonist testing, 3000 nM, 3 µM)?
Answer: Its value is 11%.

Question: And the “% Activity” value ([1]; agonist testing, @ 8000 nM)?
Answer: The value was −1 @ 8000 nM %.

Question: And the IC50 ([1]; antagonist testing with R1881)?
Answer: Its IC50 is 366 nM.

Question: What about the “% Inhibition, L929 androgen receptor functional assay” value ([1]; 3 µM) of the same molecule?
Answer: Its value is 101% and 70%.

Question: And the “active / inactive: inhibition” value [2]?
Answer: The value was “active”.

Question: With `CC(O)(CSc1ccc(N)cc1)c1cc2cc(Cl)c(C(F)(F)F)cc2[nH]1` (stereo not shown) [Compound 104] as the molecule, how does the inhibition at 3 µM [1] read?
Answer: Its inhibition at 3 µM is 18%.

Question: What about the “% Activity” value ([1]; agonist testing, 3000 nM) of the same molecule?
Answer: Its value is 9%.

Question: What about the “active / inactive: inhibition” value [2] of the same molecule?
Answer: The value was “inactive”.

Question: `CC(C)CSCC(C)(O)c1cc2cc([N+](=O)[O-])c(C(F)(F)F)cc2[nH]1` (stereo not shown) [Compound 170] was tested. Which inhibition at 3 µM [1] did it give?
Answer: Its inhibition at 3 µM is 67%.

Question: What about the “% Activity” value ([1]; agonist testing, 3000 nM) of the same molecule?
Answer: The value was 2%.

Question: And the “active / inactive: inhibition” value [2]?
Answer: Its value is “active”.

Question: What does the source list for `CCS(=O)(=O)CC(C)(O)c1cc2cc([N+](=O)[O-])c(C(F)(F)F)cc2[nH]1` (stereo not shown) [Compound 143]?
Answer: inhibition at 3 µM [1]: 67%; % Activity, L929 androgen receptor functional assay ([1]; agonist testing, 3000 nM): 0%; active / inactive: inhibition of testosterone-enhanced prostate weight [2]: active

Question: `CCSCC(C)(O)c1cc2cc([N+](=O)[O-])c(C(F)(F)F)cc2[nH]1` (racemic) [Compound 142] was tested. Which inhibition at 3 µM [1] did it give?
Answer: The inhibition at 3 µM was 78%.

Question: And the “% Activity” value ([1]; agonist testing, 3000 nM)?
Answer: Its value is 0%.

Question: What about the “active / inactive: inhibition” value [2] of the same molecule?
Answer: The value was “active”.
